Test results from ChEMBL document CHEMBL2040717, “Cytotoxic diterpenoids from Sapium insigne” (J Nat Prod, 2012).
Active and inactive are the calls of the source. The rule behind the calls is not given here.

Assays:
HL-60 [1] = test: Cytotoxicity against human HL60 cells at 100 uM by MTT assay
A549 [2] = test: Cytotoxicity against human A549 cells at 100 uM by SRB assay; type: functional, cell-based
A549 [3] = test: Cytotoxicity against human A549 cells by SRB assay; type: functional, cell-based
HL-60 [4] = test: Cytotoxicity against human HL60 cells by MTT assay

Structure (SMILES)	Activity (HL-60 [1])	Activity (A549 [2])	IC50 (A549 [3])	IC50 (HL-60 [4])
CC[C@H](C)CC[C@@H]1[C@H](C)CC[C@@H]2C(C)(C)CCC[C@@]12C	inactive	inactive		
C[C@H]1C[C@@]23CC[C@@H]4C(C)(C)CCC[C@@]4(C)[C@@H]2CC[C@@H]1C3	inactive	inactive		
C[C@H]1C[C@]23CC[C@H]1C[C@H]2[C@]1(C)CCCC(C)(C)[C@H]1CC3	inactive	inactive		
CCCCCCCC[C@@H](O)/C=C/C=C/C(=O)O[C@@]12C[C@@H](C)[C@@]3(O)[C@@H](C=C(CO)C[C@]4(O)C(=O)C(C)=C[C@@H]34)[C@@H]1[C@@]2(C)COC(C)=O [SAPINSIGNOID A]			1.8 µM	3.4 µM
CCCCCCCC[C@H](O)/C=C/C=C/C(=O)O[C@@]12C[C@@H](C)[C@@]3(O)[C@@H](C=C(CO)C[C@]4(O)C(=O)C(C)=C[C@@H]34)[C@@H]1[C@@]2(C)COC(C)=O [SAPINSIGNOID B]			0.2 µM	6.5 µM
CCCCCCCCC(=O)/C=C/C=C/C(=O)O[C@@]12C[C@@H](C)[C@@]3(O)[C@@H](C=C(CO)C[C@]4(O)C(=O)C(C)=C[C@@H]34)[C@@H]1[C@@]2(C)COC(C)=O [SAPINSIGNOID C]			0.4 µM	2.7 µM
CCCCCCCC/C=C/C=C/CC(=O)O[C@@]12C[C@@H](C)[C@@]3(O)[C@@H](C=C(CO)C[C@]4(O)C(=O)C(C)=C[C@@H]34)[C@@H]1[C@@]2(C)COC(C)=O [SAPINSIGNOID D]			0.9 µM	
